These results are taken from PubChem BioAssay AID1745844 (Carcinogenic Potency Database (CPDB), 2022).

Activity calls are given as the source filed them. No rule for the calls is given here.

The test system of the data set is rodent lifetime carcinogenesis bioassay, tumor incidence TD50. In words: carcinogenic potency in animals, long-term in vivo studies, CPDB compilation (AID 1745844).

For orientation: TD50 means the dose at which the toxic effect under study appears in half of the subjects. Regarding `ClC1(Cl)C2(Cl)C3(Cl)C4(Cl)C(Cl)(Cl)C5(Cl)C3(Cl)C1(Cl)C5(Cl)C24Cl` (centres undefined), the TD50 is, setting by setting: (mouse, strain B6AKF1, females, oral dosing, site: any site (literature study), lesion: several types, types named in the paper, dosed 68 weeks, study length 68 weeks) 1.26 mg/kg/day; (mouse, strain B6AKF1, females, oral dosing, site: liver, lesion: hepatoma, dosed 68 weeks, study length 68 weeks) 1.1 mg/kg/day; (mouse, strain B6AKF1, males, oral dosing, site: any site (literature study), lesion: several types, types named in the paper, dosed 58 weeks, study length 58 weeks) 3.32 mg/kg/day; (mouse, strain B6AKF1, males, oral dosing, site: liver, lesion: hepatoma, dosed 58 weeks, study length 58 weeks) 2.13 mg/kg/day; (mouse, strain B6C3F1, females, oral dosing, site: any site (literature study), lesion: several types, types named in the paper, dosed 69 weeks, study length 69 weeks) 1.6 mg/kg/day; (mouse, strain B6C3F1, females, oral dosing, site: liver, lesion: hepatoma, dosed 69 weeks, study length 69 weeks) 1.6 mg/kg/day. Further, the TD50 (mouse, strain B6C3F1, males, oral dosing, site: any site (literature study), lesion: several types, types named in the paper, dosed 58 weeks, study length 58 weeks) is 1.5 mg/kg/day; the TD50 (mouse, strain B6C3F1, males, oral dosing, site: liver, lesion: hepatoma, dosed 58 weeks, study length 58 weeks) came out at 1.83 mg/kg/day; the TD50 (mouse, strain B6C3F1, males, oral dosing, site: liver, lesion: several types, types named in the paper, dosed 58 weeks, study length 58 weeks) is 1.5 mg/kg/day; the TD50 (rat, strain Fischer 344, females, in feed, site: any site (literature study), lesion: several types, types named in the paper, dosed 104 weeks, study length 105 weeks) was determined as 21.9 mg/kg/day; the TD50 (rat, strain Fischer 344, females, in feed, site: any site (literature study), lesion: several types, types named in the paper, dosed 104 weeks, study length 107 weeks) was 22.4 mg/kg/day; the TD50 (rat, strain Fischer 344, females, in feed, site: liver + multiple organs + spleen, lesion: hepatocellular carcinoma + neoplastic nodule + mononuclear-cell leukemia, dosed 104 weeks, study length 105 weeks) is 3.34 mg/kg/day. In addition, the TD50 is 3.17 mg/kg/day (rat, strain Fischer 344, females, in feed, site: liver, lesion: hepatocellular adenoma + hepatocellular carcinoma + neoplastic nodule, dosed 104 weeks, study length 105 weeks); 16.5 mg/kg/day (rat, strain Fischer 344, females, in feed, site: liver, lesion: hepatocellular adenoma + hepatocellular carcinoma + neoplastic nodule, dosed 104 weeks, study length 107 weeks); 3.17 mg/kg/day (rat, strain Fischer 344, females, in feed, site: liver, lesion: hepatocellular carcinoma + neoplastic nodule, dosed 104 weeks, study length 105 weeks); 3.22 mg/kg/day (rat, strain Fischer 344, females, in feed, site: liver, lesion: neoplastic nodule, dosed 104 weeks, study length 105 weeks); 15.7 mg/kg/day (rat, strain Fischer 344, females, in feed, site: multiple organs + spleen, lesion: mononuclear-cell leukemia, dosed 104 weeks, study length 105 weeks); 5.97 mg/kg/day (rat, strain Fischer 344, females, in feed, site: multiple organs + spleen, lesion: mononuclear-cell leukemia, dosed 104 weeks, study length 107 weeks). In addition, the TD50 is, setting by setting: (rat, strain Fischer 344, males, in feed, site: adrenal gland + kidney/pelvis + liver, lesion: pheochromocytoma + pheochromocytoma, malignant + transitional-cell papilloma + hepatocellular carcinoma + neoplastic nodule, dosed 104 weeks, study length 104 weeks) 0.669 mg/kg/day; (rat, strain Fischer 344, males, in feed, site: adrenal gland, lesion: pheochromocytoma + pheochromocytoma, malignant, dosed 104 weeks, study length 104 weeks) 1.43 mg/kg/day; (rat, strain Fischer 344, males, in feed, site: any site (literature study), lesion: several types, types named in the paper, dosed 104 weeks, study length 104 weeks) 0.618 mg/kg/day; (rat, strain Fischer 344, males, in feed, site: kidney/pelvis, lesion: transitional-cell papilloma, dosed 104 weeks, study length 104 weeks) 13.5 mg/kg/day; (rat, strain Fischer 344, males, in feed, site: liver, lesion: hepatocellular adenoma + hepatocellular carcinoma + neoplastic nodule, dosed 104 weeks, study length 104 weeks) 0.825 mg/kg/day; (rat, strain Fischer 344, males, in feed, site: liver, lesion: hepatocellular carcinoma + neoplastic nodule, dosed 104 weeks, study length 104 weeks) 0.825 mg/kg/day. Moreover, the TD50 is 7.09 mg/kg/day (rat, strain Fischer 344, males, in feed, site: liver, lesion: hepatocellular carcinoma, dosed 104 weeks, study length 104 weeks); 0.87 mg/kg/day (rat, strain Fischer 344, males, in feed, site: liver, lesion: neoplastic nodule, dosed 104 weeks, study length 104 weeks); 0.708 mg/kg/day (rat, strain Fischer 344, males, in feed, site: testis, lesion: interstitial-cell tumor, dosed 104 weeks, study length 104 weeks); 10.4 mg/kg/day (rat, strain Fischer 344, males, in feed, site: thyroid gland, lesion: follicular-cell adenoma + follicular-cell carcinoma, dosed 104 weeks, study length 104 weeks); 12.7 mg/kg/day (rat, strain Fischer 344, males, in feed, site: thyroid gland, lesion: follicular-cell adenoma, dosed 104 weeks, study length 104 weeks).

For `Nc1ccc(N=Nc2ccccc2)c(N)n1`, the TD50 was 89.7 mg/kg/day (mouse, strain B6C3F1, females, in feed, site: any site (literature study), lesion: several types, types named in the paper, dosed 80 weeks, study length 105 weeks); 71.1 mg/kg/day (mouse, strain B6C3F1, females, in feed, site: liver, lesion: hepatocellular adenoma + hepatocellular carcinoma + neoplastic nodule, dosed 80 weeks, study length 105 weeks); 71.1 mg/kg/day (mouse, strain B6C3F1, females, in feed, site: liver, lesion: hepatocellular adenoma + hepatocellular carcinoma, dosed 80 weeks, study length 105 weeks); 132 mg/kg/day (mouse, strain B6C3F1, females, in feed, site: liver, lesion: hepatocellular carcinoma, dosed 80 weeks, study length 105 weeks); 4650 mg/kg/day (mouse, strain B6C3F1, females, in feed, site: lung, lesion: alveolar/bronchiolar adenoma + alveolar/bronchiolar carcinoma, dosed 80 weeks, study length 105 weeks); 496 mg/kg/day (inactive) (mouse, strain B6C3F1, males, in feed, site: any site (literature study), lesion: several types, types named in the paper, dosed 80 weeks, study length 105 weeks). Besides, the TD50 is 811 mg/kg/day (mouse, strain B6C3F1, males, in feed, site: liver, lesion: hepatocellular adenoma + hepatocellular carcinoma + neoplastic nodule, dosed 80 weeks, study length 105 weeks); 1300 mg/kg/day (mouse, strain B6C3F1, males, in feed, site: lung, lesion: alveolar/bronchiolar adenoma + alveolar/bronchiolar carcinoma, dosed 80 weeks, study length 105 weeks); 687 mg/kg/day (rat, strain Fischer 344, females, in feed, site: colon, lesion: adenocarcinoma, NOS, dosed 78 weeks, study length 105 weeks); 303 mg/kg/day (rat, strain Fischer 344, males, in feed, site: colon + rectum, lesion: adenocarcinoma, NOS + adenoma, NOS, dosed 78 weeks, study length 104 weeks); 333 mg/kg/day (rat, strain Fischer 344, males, in feed, site: colon + rectum, lesion: adenocarcinoma, NOS, dosed 78 weeks, study length 104 weeks); 2170 mg/kg/day (rat, strain Fischer 344, males, in feed, site: liver, lesion: hepatocellular adenoma + hepatocellular carcinoma + neoplastic nodule, dosed 78 weeks, study length 104 weeks).

`O=S1OCCO1` gave a TD50 (mouse, strain Ha/ICR, females, i.p., site: lung, lesion: papillary tumor, dosed 64 weeks, study length 64 weeks) of 1.03 mg/kg/day.

Turning to `CN(CCCC(O)c1cccnc1)N=O` (centres undefined), the TD50 by setting is: (rat, strain Fischer 344, males, in drinking water, site: adrenal medulla, lesion: one or several types, types not named, dosed 112 weeks, study length 112 weeks) 1.39 mg/kg/day; (rat, strain Fischer 344, males, in drinking water, site: liver, lesion: hepatoma, dosed 112 weeks, study length 112 weeks) 5.86 mg/kg/day; (rat, strain Fischer 344, males, in drinking water, site: liver, lesion: several types, types named in the paper, dosed 112 weeks, study length 112 weeks) 7.25 mg/kg/day; (rat, strain Fischer 344, males, in drinking water, site: lung, lesion: adenocarcinoma, dosed 112 weeks, study length 112 weeks) 0.409 mg/kg/day; (rat, strain Fischer 344, males, in drinking water, site: lung, lesion: adenoma, dosed 112 weeks, study length 112 weeks) 1.38 mg/kg/day; (rat, strain Fischer 344, males, in drinking water, site: lung, lesion: adenosquamous carcinoma, dosed 112 weeks, study length 112 weeks) 0.577 mg/kg/day. The TD50 is, setting by setting: (rat, strain Fischer 344, males, in drinking water, site: lung, lesion: several types, types named in the paper, dosed 112 weeks, study length 112 weeks) 0.103 mg/kg/day; (rat, strain Fischer 344, males, in drinking water, site: pancreas, exocrine, lesion: acinar-cell adenoma, dosed 112 weeks, study length 112 weeks) 2.14 mg/kg/day; (rat, strain Fischer 344, males, in drinking water, site: pancreas, exocrine, lesion: adenocarcinoma, acinar or ductal, dosed 112 weeks, study length 112 weeks) 1.09 mg/kg/day; (rat, strain Fischer 344, males, in drinking water, site: pancreas, exocrine, lesion: several types, types named in the paper, dosed 112 weeks, study length 112 weeks) 0.668 mg/kg/day.

In the case of `CCCCNC(=O)N(CCCC)N=O`, the TD50 is, setting by setting: (rat, strain Donryu, females, in drinking water, site: all sites, lesion: leukemia, dosed 75 weeks, study length 75 weeks) 32 mg/kg/day; (rat, strain Donryu, females, in drinking water, site: any site (literature study), lesion: several types, types named in the paper, dosed 75 weeks, study length 75 weeks) 2.67 mg/kg/day; (rat, strain Donryu, females, in drinking water, site: liver, lesion: adenoma, dosed 75 weeks, study length 75 weeks) 303 mg/kg/day; (rat, strain Donryu, females, in drinking water, site: mammary gland, lesion: adenocarcinoma, dosed 75 weeks, study length 75 weeks) 22.7 mg/kg/day; (rat, strain Donryu, females, in drinking water, site: mammary tissue, wider than the gland, lesion: fibroadenoma, dosed 75 weeks, study length 75 weeks) 2.23 mg/kg/day; (rat, strain Donryu, females, in drinking water, site: mammary tissue, wider than the gland, lesion: several types, types named in the paper, dosed 75 weeks, study length 75 weeks) 4.28 mg/kg/day. The TD50 (rat, strain Donryu, females, in drinking water, site: uterus, lesion: several types, types named in the paper, dosed 75 weeks, study length 75 weeks) was determined as 15.3 mg/kg/day.
